Key:
[1] = system: VCaP cells; assay: Cell proliferation assay (CellTiter-Glo, 5-day exposure), VCaP; type: cell-based; settings: 4000 cells/well, Th-227 labelled at 375 kBq/nmol, mean of 1 to 6 experiments
How it was run: (§1)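 Prostate cancer cells (VCaP 4000/well; 22Rv1, C4-2, LNCaP 1000/well), Th-227-labelled PSMA ligands, 5-day exposure; viability by CTG at start and end.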

[2] = system: LNCaP human prostate cancer cells; assay: LNCaP xenograft efficacy study (T/C tumor area); type: in vivo, SCID mice
Procedure: (§2) SCID mice were randomly assigned to experimental groups, ten animals per group (efficacy) or n=3-5 per time point of biodistribution study. At the initiation of the study, a testosterone pellet was subcutaneously transplanted, the animals were shaved, tattooed and each cage was labeled with the cage number, study number and number of animals per cage.
(§3) LNCaP human prostate cancer cells were cultured as described according to the supplier's protocols. Cells were harvested for transplantation in a subconfluent (70%) state. Animals were injected with 5×10^6 LNCaP cells suspended in 100% Matrigel subcutaneously into the flank of the mice.
Efficacy study: When tumors reached a predetermined size in mice of 35-50 mm^2 animals were randomized into treatment and control groups (n=10 animals/group) and treatment with the defined radioactive dose was started. The i.v. application volume was 100 μl/mice.
Tumor response was assessed by determination of the tumor area (product of the longest diameter and its perpendicular) using a caliper. The animal body weight was monitored as a measure for treatment-related toxicity. Measurement of tumor area and body weight was performed two to three times weekly.
Animals were sacrificed when showing signs of toxicity (>20% body weight loss) or when tumors reached a size of approximately 200 mm^2.
Tumor growth inhibition is presented as T/C ratio (Treatment/Control) calculated with tumor areas when the vehicle control group had to be closed.

[3] = system: 22Rv1 cells; assay: Cell proliferation assay (CellTiter-Glo, 5-day exposure), 22Rv1; type: cell-based; settings: 22Rv1, 1000 cells/well, Th-227 labelled at 375 kBq/nmol, mean of 1 to 6 experiments
How it was run: as §1

[4] = system: C4-2 cells; assay: Cell proliferation assay (CellTiter-Glo, 5-day exposure), C4-2; type: cell-based; settings: C4-2, 1000 cells/well, Th-227 labelled at 375 kBq/nmol, mean of 1 to 6 experiments
How it was run: as §1

[5] = Biodistribution study in LNCaP tumor-bearing mice (Th227 counted in organs); type: in vivo, SCID mice; settings: 1500 kBq/kg
Procedure: as §2, §3
Biodistribution study: When tumors reached a predetermined size in mice of ˜50 mm^2 animals were randomized into groups (n=3 animals/time point) and the radioactive compound was once applied intravenously. The i.v. application volume was 100 μl/mice.
At the predetermined time point, n=3 animals were sacrificed, the organs removed, weight and measured in a Germanium detector to count the Th227 in the sample.

In the case of `O=C([O-])CN1CCN(CC(=O)[O-])CCN(CC(=O)NCc2ccc(C(=O)N[C@@H](Cc3ccc4ccccc4n3)C(=O)NCCCC[C@H](NC(=O)N[C@@H](CCC(=O)O)C(=O)O)C(=O)O)nc2)CCN(CC(=O)[O-])CC1.[227Th+4]` [Example 34-B-227Th, {N^6-[3-(quinolin-2-yl)-N-{5-[(2-{4,7,10-tris[(carboxy-kappaO)methyl]-1,4,7,10-tetraazacyclododecan-1-yl-kappa^4N^1,N^4,N^7,N^10}acetamido)methyl]pyridine-2-carbonyl}-L-alanyl]-N^2-{[(1S)-1,3-dicarboxypropyl]carbamoyl}-L-lysinato(4−)}(^227Th)Thorate(1−)], the “Proliferation assay on cancer cell lines by TTCs Default Pivot #3 IC50 [kBq/mL] VCap 4000cells 375kBq/nmol (mean)” value [1] is reported as 1.75 kBq/mL, the T/Carea ([2]; Example III, day 64 after start of therapy, single treatment 1.5 MBq/kg) is reported as 0.23 and the T/Carea ([2]; Example IV, day 36 after start of therapy, once 1 MBq/kg) is reported as 0.66. The “Proliferation assay on cancer cell lines by TTCs Default Pivot #3 IC50 [kBq/mL] 22Rv1 1000cells 375kBq/nmol (mean)” value [3] was 0.76 kBq/mL, the “Proliferation assay on cancer cell lines by TTCs Default Pivot #3 IC50 [kBq/mL] C4-2 1000cells 375kBq/nmol (mean)” value [4] was 0.63 kBq/mL and the Th-227 in Blood ([5]; 0.25 h) was 1.78% ID Th-227/g organ. The Th-227 in Liver ([5]; 0.25 h) was 1.69% ID Th-227/g organ, the Th-227 in Spleen ([5]; 0.25 h) was 17.32% ID Th-227/g organ and the Th-227 in Tumor ([5]; 0.25 h) was 6.33% ID Th-227/g organ. It also gave a Th-227 in bone ([5]; 0.25 h) of 1.66% ID Th-227/g organ, a Th-227 in brain ([5]; 0.25 h) of 0.12% ID Th-227/g organ and a Th-227 in kidney ([5]; 0.25 h) of 62.53% ID Th-227/g organ. For the same molecule, the “Th-227 in large intestine” value ([5]; 0.25 h) was 0.67% ID Th-227/g organ, the Th-227 in lung ([5]; 0.25 h) was 4.04% ID Th-227/g organ and the Th-227 in muscle ([5]; 0.25 h) was 1.02% ID Th-227/g organ. The Th-227 in prostate ([5]; 0.25 h) was 0.00% ID Th-227/g organ, the “Th-227 in salivary glands” value ([5]; 0.25 h) was 3.14% ID Th-227/g organ and the “Th-227 in small intestine” value ([5]; 0.25 h) was 1.36% ID Th-227/g organ. For the same molecule, the “Accumulation in the tumor (in words)” value [5] was “good and stable accumulation in the tumor”, the Th-227 in Blood ([5]; 1 hr) was 0.58% ID Th-227/g organ and the Th-227 in Liver ([5]; 1 hr) was 0.88% ID Th-227/g organ. It also gave a Th-227 in Spleen ([5]; 1 hr) of 19.69% ID Th-227/g organ, a Th-227 in Tumor ([5]; 1 hr) of 9.15% ID Th-227/g organ and a Th-227 in bone ([5]; 1 hr) of 1.27% ID Th-227/g organ. For the same molecule, the Th-227 in brain ([5]; 1 hr) was 0.02% ID Th-227/g organ, the Th-227 in kidney ([5]; 1 hr) was 69.22% ID Th-227/g organ and the “Th-227 in large intestine” value ([5]; 1 hr) was 0.45% ID Th-227/g organ. It also gave a Th-227 in lung ([5]; 1 hr) of 2.79% ID Th-227/g organ, a Th-227 in muscle ([5]; 1 hr) of 0.54% ID Th-227/g organ and a Th-227 in prostate ([5]; 1 hr) of 0.62% ID Th-227/g organ. For the same molecule, the “Th-227 in salivary glands” value ([5]; 1 hr) was 1.75% ID Th-227/g organ, the “Th-227 in small intestine” value ([5]; 1 hr) was 0.64% ID Th-227/g organ and the Th-227 in Blood ([5]; 4 hr) was 0.07% ID Th-227/g organ. For the same molecule, the Th-227 in Liver ([5]; 4 hr) was 0.55% ID Th-227/g organ, the Th-227 in Spleen ([5]; 4 hr) was 11.57% ID Th-227/g organ and the Th-227 in Tumor ([5]; 4 hr) was 7.00% ID Th-227/g organ. The Th-227 in bone ([5]; 4 hr) was 1.44% ID Th-227/g organ, the Th-227 in brain ([5]; 4 hr) was 0.00% ID Th-227/g organ and the Th-227 in kidney ([5]; 4 hr) was 65.52% ID Th-227/g organ. The “Th-227 in large intestine” value ([5]; 4 hr) was 0.79% ID Th-227/g organ, the Th-227 in lung ([5]; 4 hr) was 1.48% ID Th-227/g organ and the Th-227 in muscle ([5]; 4 hr) was 0.41% ID Th-227/g organ. For the same molecule, the Th-227 in prostate ([5]; 4 hr) was 4.08% ID Th-227/g organ, the “Th-227 in salivary glands” value ([5]; 4 hr) was 1.05% ID Th-227/g organ and the “Th-227 in small intestine” value ([5]; 4 hr) was 1.13% ID Th-227/g organ. It also gave a Th-227 in Blood ([5]; 24 h) of 0.01% ID Th-227/g organ, a Th-227 in Liver ([5]; 24 h) of 0.23% ID Th-227/g organ and a Th-227 in Spleen ([5]; 24 h) of 1.21% ID Th-227/g organ. It also gave a Th-227 in Tumor ([5]; 24 h) of 10.56% ID Th-227/g organ, a Th-227 in bone ([5]; 24 h) of 1.21% ID Th-227/g organ and a Th-227 in brain ([5]; 24 h) of 0.00% ID Th-227/g organ. The Th-227 in kidney ([5]; 24 h) was 21.02% ID Th-227/g organ, the “Th-227 in large intestine” value ([5]; 24 h) was 0.10% ID Th-227/g organ and the Th-227 in lung ([5]; 24 h) was 0.27% ID Th-227/g organ. The Th-227 in muscle ([5]; 24 h) was 0.00% ID Th-227/g organ, the Th-227 in prostate ([5]; 24 h) was 0.00% ID Th-227/g organ and the “Th-227 in salivary glands” value ([5]; 24 h) was 0.11% ID Th-227/g organ. The “Th-227 in small intestine” value ([5]; 24 h) was 0.08% ID Th-227/g organ, the Th-227 in Blood ([5]; 96 h) was 0.00% ID Th-227/g organ and the Th-227 in Liver ([5]; 96 h) was 0.19% ID Th-227/g organ. For the same molecule, the Th-227 in Spleen ([5]; 96 h) was 0.43% ID Th-227/g organ, the Th-227 in Tumor ([5]; 96 h) was 9.97% ID Th-227/g organ and the Th-227 in bone ([5]; 96 h) was 1.08% ID Th-227/g organ. The Th-227 in brain ([5]; 96 h) was 0.00% ID Th-227/g organ, the Th-227 in kidney ([5]; 96 h) was 9.71% ID Th-227/g organ and the “Th-227 in large intestine” value ([5]; 96 h) was 1.44% ID Th-227/g organ. For the same molecule, the Th-227 in lung ([5]; 96 h) was 0.13% ID Th-227/g organ, the Th-227 in muscle ([5]; 96 h) was 0.00% ID Th-227/g organ and the Th-227 in prostate ([5]; 96 h) was 0.00% ID Th-227/g organ. The “Th-227 in salivary glands” value ([5]; 96 h) was 0.10% ID Th-227/g organ and the “Th-227 in small intestine” value ([5]; 96 h) was 0.25% ID Th-227/g organ.
